Inhibition and IC50 data for 15 compounds are collected here from patent publication US20250281424A1 (New York Blood Center, Inc, priority 2020, published 2025).

The structures appear in SMILES notation.

The target of this assay is T1, human PF4 (Homo sapiens, UniProt P02776).
T1 construct: PF4 is a 70 amino acid, lysine-rich 7.8 kDa platelet-specific protein; made in house; host or cells: Escherichia coli BL21DE3 pLysS (pT7-7) and/or Drosophila S2 cells
T1 sequence (P02776 32-101): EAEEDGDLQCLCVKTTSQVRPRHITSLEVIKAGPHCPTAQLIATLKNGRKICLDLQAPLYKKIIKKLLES
Briefly: Inhibition of PF4 tetramer formation (BS3 cross-linking, SDS-PAGE). It counts as biochemical. The settings on record: for inhibition at 5 µM: 5 μM inhibitor; for inhibition at 5 µM / inhibition at 10 µM / inhibition at 1 µM / inhibition at 3 µM: read-out: % inhibition of PF4 tetramer formation at single concentration of inhibitor; for inhibition at 10 µM: 10 μM inhibitor (column A); for inhibition at 1 µM: 1 μM inhibitor; for inhibition at 3 µM: 3 μM inhibitor (column A); for IC50: read-out: IC50 of PF4 tetramer formation inhibition. As for the experimental part: Compounds of Examples 1-38, 65-301, 303, 305, 307, 309, 311, 313, 314, 316, and 318-404 were tested using SDS PAGE analysis of BS3 crosslinked PF4 for their ability to prevent PF4 tetramer formation. […] See, Suvarna et al., Throm. Res, 122:211-220 (2008), which is hereby incorporated by reference, at least for a detailed description of this technique.
cDNA encoding human PF4 was cloned into the plasmid μMT/BiPN5-His A (Invitrogen Corp., Carlsbad CA) for expression in the Drosophila Expression System (Invitrogen, Carlsbad, CA). Cloning was performed using Bg1 II and Age I cloning sites. A hexanucleotide encoding Bg1 II site was then eliminated by site-directed mutagenesis so that the expressed protein contained full-length wild type (wt) PF4 or PF4^K50E with an identical sequence as their counterparts expressed in E. coli. See, method described in Sachais et al (Sachais, B. S. et al. (2012). Blood 119(25): 5955-5961). PF4 expression was induced by adding copper sulfate (0.5 mM). The induced S2 cells were incubated in serumfree Insect-Xpress™ media (Lonza, Walkersville, MD) for 3-5 days; supernatants were collected, sodium azide (0.02% final concentration) and EDTA (2.5 mM final concentration) were added, and the media were filtered through an Express® PLUS 0.22 μm filter (Millipore Corp., Billerica, MA).
Wild-type (WT) human PF4 in the pT7-7 vector (Novagen, Madison, WI) was expressed in the Escherichia coli strain BL21DE30 pLysS (Stratagene, La Jolla, CA), and purified and characterized as described by Rauova et al. (Rauova, L. et al. (2006). Blood 107(6): 2346-2353) and Park et al., (Blood, 75:1290-1295 (1990)), which are hereby incorporated by reference. Briefly, recombinant protein was isolated from the supernatant of the bacterial lysate by affinity chromatography using a HiTrap high-performance (HP) affinity column. WT PF4 was purified from the media on a heparin HiTrap® column on an ÄTKAPrime™ system (GE Healthcare) at 4° C. in Tris (10 mM), EDTA (1 mM), and pH 8 buffer. Media was loaded in buffer containing NaCl (0.5 M) and PF4 was eluted at 1.8 M NaCl using a linear gradient. Fractions containing purified PF4 as detected by silver staining of 12% NuPAGE Bis-Tris gels (Invitrogen) were pooled, concentrated and buffer exchanged into 50 mM HEPES, 0.5 M NaCl, pH—7.2 using an Amicon® Ultra centrifugal filter (3K NMWL, Millipore Corp). Protein was quantified using a BCA assay.
Compounds of Examples 1-38, 65-196, and 209-228 were then tested for their ability to inhibit PF4 tetramer formation using a cross-linking assay as described in Rauova cited above. Specifically, hPF4 (10 μg/ml) in phosphate-buffered saline (PBS) was incubated at 37° C. for 15 min in the absence of the antagonistic compounds (control sample) and presence of compounds. Cross-linking and SDS-PAGE analysis were then performed as described in “Analysis of PF4 multimerization” of Rauova. The relative amounts of PF4 in each of the monomer, dimer, trimer and tetramer form were calculated by analyzing the samples on a 12% SDS-polyacrylamide gel under reducing conditions. Bands were quantified using the Kodak ID Image Analysis system (Kodak, Rochester, NY). The SigmaMarker™ reagent served as the molecular weight standard. Data was compiled and bar graphed as % PF4 for the tetramer, trimer, dimer, and monomer as a function of concentration for the test and control samples.
This experiment was performed in a manner similar to experiment 1, but PF4 (10 μg/ml) in PBS was independently incubated with compounds of Examples 1-38, 65-196, and 209-228 for 60 min at room temperature, followed by the addition of cross-linking reagent bis(sulfosuccinimidyl)suberate (0.2 mM) for 30 min at room temperature. The reaction was stopped by adding NuPAGE® lithium dodecyl sulfate (LDS) sample buffer, and denatured by heating to 70° C. for 10 min according to the manufacturer's instructions. […]

For `O=C(CC1CCCCC1)C1C(=O)c2ccc(S(=O)(=O)c3ccc4c(c3)C(=O)C(C(=O)CC3CCCCC3)C4=O)cc2C1=O` (stereo not shown) [Example 148, 2-(2-cyclohexylacetyl)-5-{[2-(2-cyclohexylacetyl)-1,3-dioxo-2,3-dihydro-1H-inden-5-yl]sulfonyl}-2,3-dihydro-1H-indene-1,3-dione], the inhibition at 5 µM stood at 59% and the inhibition at 10 µM amounted to 90%.

As for `CC(C)CCCC(=O)C1C(=O)c2ccc(S(=O)(=O)c3ccc4c(c3)C(=O)C(C(=O)CCCC(C)C)C4=O)cc2C1=O` (stereo not shown) [Example 171, 2-(5-methylhexanoyl)-5-{[2-(5-methylhexanoyl)-1,3-dioxo-2,3-dihydro-1H-inden-5-yl]sulfonyl}-2,3-dihydro-1H-indene-1,3-dione], the inhibition at 5 µM was found to be 62% and the inhibition at 10 µM amounted to 75%.

`O=C(CCC(=O)C1C(=O)c2ccc(Oc3ccc4c(c3)C(=O)C(C(=O)CCC(=O)c3cccc(Cl)c3Cl)C4=O)cc2C1=O)c1cccc(Cl)c1Cl` (stereo not shown) [Example 258, 2-[4-(2,3-dichlorophenyl)-4-oxobutanoyl]-5-({2-[4-(2,3-dichlorophenyl)-4-oxobutanoyl]-1,3-dioxo-2,3-dihydro-1H-inden-5-yl}oxy)-2,3-dihydro-1H-indene-1,3-dione]: the inhibition at 1 µM was found to be 18% and the inhibition at 3 µM was determined as 33%.

Take `CO[C@@H](C(=O)C1C(=O)c2ccc(C(=O)c3ccc4c(c3)C(=O)C(C(=O)[C@H](OC)c3ccccc3)C4=O)cc2C1=O)c1ccccc1` (stereo partly drawn) [Example 119, 2-[(2R)-2-methoxy-2-phenylacetyl]-5-{2-[(2R)-2-methoxy-2-phenylacetyl]-1,3-dioxo-2,3-dihydro-1H-indene-5-carbonyl}-2,3-dihydro-1H-indene-1,3-dione]: the inhibition at 5 µM was 83%, the inhibition at 10 µM came out at 90% and the IC50 stood at 4 µM.

With `CSCC(=O)C1C(=O)c2ccc(S(=O)(=O)c3ccc4c(c3)C(=O)C(C(=O)CSC)C4=O)cc2C1=O` (stereo not shown) [Example 282, 2-[2-(methylsulfanyl)acetyl]-5-({2-[2-(methylsulfanyl)acetyl]-1,3-dioxo-2,3-dihydro-1H-inden-5-yl}sulfonyl)-2,3-dihydro-1H-indene-1,3-dione], the inhibition at 1 µM came out at 29%, the inhibition at 3 µM was 45% and the IC50 came out at 3 µM.

For the compound `CCOC(=O)C1(C(C)=O)C(=O)c2ccc(Oc3ccc4c(c3)C(=O)CC4=O)cc2C1=O` (stereo not shown) [Example 6, 2-acetyl-5-(1,3-dioxo-indan-5-yloxy)-1,3-dioxo-indan-2-carboxylic acid ethyl ester], the IC50 was 1.05 µM.

As to `COc1cccc(NC(=O)C2C(=O)c3ccc(C(=O)c4ccc5c(c4)C(=O)C(C(=O)Nc4cccc(OC)c4)C5=O)cc3C2=O)c1` (stereo not shown) [Example 23, 5,5′-carbonylbis(1,3-dioxo-indan-2-carboxylic acid (3-methoxyphenyl)-amide)], the inhibition at 5 µM stood at 84%, the inhibition at 10 µM was 92% and the IC50 came out at 1.75 µM.

With `O=C(O)CNC(=O)C1C(=O)c2ccc(S(=O)(=O)c3ccc4c(c3)C(=O)C(C(=O)NCC(=O)O)C4=O)cc2C1=O` (stereo not shown) [Example 311, 2-{[5-({2-[(carboxymethyl)carbamoyl]-1,3-dioxo-2,3-dihydro-1H-inden-5-yl}sulfonyl)-1,3-dioxo-2,3-dihydro-1H-inden-2-yl]formamido}acetic acid], the inhibition at 10 µM was found to be 73%.

For the compound `COC(=O)N1CCC[C@H]1C(=O)C1C(=O)c2ccc(-c3ccc4c(c3)C(=O)C(C(=O)[C@@H]3CCCN3C(=O)OC)C4=O)cc2C1=O` (stereo partly drawn) [Example 213, methyl (2S)-2-{2′-[(2S)-1-(methoxycarbonyl)pyrrolidine-2-carbonyl]-1,1′,3,3′-tetraoxo-1H,1′H,2H,2′H,3H,3′H-[5,5′-biindene]-2-carbonyl}pyrrolidine-1-carboxylate], the inhibition at 5 µM is 87%, the inhibition at 10 µM turned out to be 89% and the IC50 is 4.8 µM.

As for `CC(=O)NCCCC(=O)C1C(=O)c2ccc(Oc3ccc4c(c3)C(=O)C(C(=O)CCCNC(C)=O)C4=O)cc2C1=O` (stereo not shown) [Example 265, N-[4-(5-{[2-(4-acetamidobutanoyl)-1,3-dioxo-2,3-dihydro-1H-inden-5-yl]oxy}-1,3-dioxo-2,3-dihydro-1H-inden-2-yl)-4-oxobutyl]acetamide], the inhibition at 1 µM was found to be 18% and the inhibition at 3 µM was determined as 34%.

With `Cc1ccc(NC(=O)C2C(=O)c3ccc(S(=O)(=O)c4ccc5c(c4)C(=O)C(C(=O)Nc4ccc(C)cc4)C5=O)cc3C2=O)cc1` (stereo not shown) [Example 92, N-(4-methylphenyl)-5-({2-[(4-methylphenyl)carbamoyl]-1,3-dioxo-2,3-dihydro-1H-inden-5-yl}sulfonyl)-1,3-dioxo-2,3-dihydro-1H-indene-2-carboxamide], the inhibition at 5 µM was 60% and the inhibition at 10 µM worked out at 65%.

Regarding `COCCOCCNCC(=O)C1C(=O)c2ccc(S(=O)(=O)c3ccc4c(c3)C(=O)C(C(=O)CNCCOCCOC)C4=O)cc2C1=O` (stereo not shown) [Example 397, 2-(2-{[2-(2-methoxyethoxy)ethyl]amino}acetyl)-5-{[2-(2-{[2-(2-methoxyethoxy)ethyl]amino}acetyl)-1,3-dioxo-2,3-dihydro-1H-inden-5-yl]sulfonyl}-2,3-dihydro-1H-indene-1,3-dione], the inhibition at 1 µM was determined as 2% and the inhibition at 3 µM stood at 9%.

Take `COCCCNC(=O)C1C(=O)c2ccc(S(=O)(=O)c3ccc4c(c3)C(=O)C(C(=O)NCCCOC)C4=O)cc2C1=O` (stereo not shown) [Example 90, N-(3-methoxypropyl)-5-({2-[(3-methoxypropyl)carbamoyl]-1,3-dioxo-2,3-dihydro-1H-inden-5-yl}sulfonyl)-1,3-dioxo-2,3-dihydro-1H-indene-2-carboxamide]: the IC50 is 4.2 µM.

In the case of `CC(C)(C)OC(=O)N1C[C@@H]2[C@H](C1)[C@H]2C(=O)C1C(=O)c2ccc(C(=O)c3ccc4c(c3)C(=O)C(C(=O)[C@H]3[C@@H]5CN(C(=O)OC(C)(C)C)C[C@@H]53)C4=O)cc2C1=O` (stereo partly shown) [Example 121], the inhibition at 5 µM was found to be 82%, the inhibition at 10 µM is 80% and the IC50 was determined as 3.5 µM.

With `CC(C)OC(=O)N1CCC[C@H]1C(=O)C1C(=O)c2ccc(C(=O)c3ccc4c(c3)C(=O)C(C(=O)[C@@H]3CCCN3C(=O)OC(C)C)C4=O)cc2C1=O` (stereo partly drawn) [Example 134, propan-2-yl (2S)-2-(5-{1,3-dioxo-2-[(2S)-1-[(propan-2-yloxy)carbonyl]pyrrolidine-2-carbonyl]-2,3-dihydro-1H-indene-5-carbonyl}-1,3-dioxo-2,3-dihydro-1H-indene-2-carbonyl)pyrrolidine-1-carboxylate], the IC50 was 1.1 µM.

The IC50 is the concentration that inhibits the measured activity by half.
